This assay concerns the target T1, RORγ (Homo sapiens, UniProt P51449).
T1 construct: expressed in transfected cells; host or cells: 293FT cells (Invitrogen), expression vector pFN26A (Promega)
T1 sequence (P51449 269-508 limits assumed): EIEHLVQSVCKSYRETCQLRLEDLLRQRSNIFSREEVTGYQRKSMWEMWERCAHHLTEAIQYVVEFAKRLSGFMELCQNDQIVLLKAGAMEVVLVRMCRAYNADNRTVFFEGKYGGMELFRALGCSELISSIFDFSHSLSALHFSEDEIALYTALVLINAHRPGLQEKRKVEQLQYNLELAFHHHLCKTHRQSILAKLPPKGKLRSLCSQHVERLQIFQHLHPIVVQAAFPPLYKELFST
The assay is described as follows: RORγ GAL4 reporter gene assay. The assay is classed as cell-based. To be noted: inhibition of RORγ activity, GAL4-RORγ-LBD luciferase reporter in 293FT cells, overnight incubation; read-out: mean pIC50 (converted). In a few lines:
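293FT cells were transiently co-transfected with GAL4-DBD–RORγ-LBD (or GAL4-VP16 control) and a 9×UAS luc2P reporter, then plated at 60,000 cells/well. Compound was added at final 0.2% DMSO for 16-24 h at 37 °C, and inhibition was measured by firefly luciferase luminescence.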
A general note: In a reporter assay the amount or activity of a reporter protein is the signal.
`CCCN(C(=O)c1ccc(NC(=O)Cc2ccc(S(=O)(=O)NC3CC3)cc2)cc1)c1cc(C)nn1C` [Example 92, 4-{2-[4-(cyclopropylsuIfamoyl)phenyl]acetamido}-N-(1,3-dimethyl-1H-pyrazol-5-yl)-N-propylbenzamide]: the IC50 was no more than 10 nM.
To `C[C@@H](c1ccccc1)N(C)C(=O)c1ccc(NC(=O)Cc2ccc(S(=O)(=O)CC3CC3)cc2)cc1` [Example 18, 4-[2-(4-cyclopropylmethanesulfonylphenyl)acetamido]-N-methyl-N-[(1S)-1-phenylethyl]benzamide] belongs no more than 100 nM; to `CCN(C(=O)c1ccc(NC(=O)Cc2ccc(S(=O)(=O)CC3CC3)cc2)cc1)c1nnc(C)s1` [Example 96, 4-[2-(4-cyclopropylmethanesulfonylphenyl)acetamido]-N-ethyl-N-(5-methyl-1,3,4-thiadiazol-2-yl)benzamide], no more than 100 nM.
The same measure for `CCCN(C(=O)c1ccc(NC(=O)Cc2ccc(S(=O)(=O)CC3CC3)cc2)cc1)c1nccs1` [Example 83, 4-[2-(4-cyclopropylmethanesulfonylphenyl)acetamido]-N-propyl-N-(1,3-thiazol-2-yl)benzamide]: no more than 10 nM.
Take `CCN(C(=O)c1ccc(NC(=O)Cc2ccc(S(=O)(=O)CC3CC3)cc2)cc1C)c1ccccc1Cl` [Example 166, N-(2-chlorophenyl)-4-[2-(4-cyclopropylmethanesulfonylphenyl)acetamido]-N-ethyl-2-methylbenzamide]: the IC50 was no more than 10 nM.
On to `CC1CCCCN1C(=O)c1ccc(NC(=O)Cc2ccc(S(=O)(=O)CC3CC3)cc2)cc1` (stereo not drawn) [Example 28, 2-(4-cyclopropylmethanesulfonylphenyl)-N-[4-(2-methylpiperidine-1-carbonyl)phenyl]acetamide], for which the IC50 was no more than 1000 nM.
As to `O=C(Cc1ccc(S(=O)(=O)CC2CC2)cc1)Nc1ccc(C(=O)N2CCCCC2)cc1` [Example 36, 2-(4-cyclopropylmethanesulfonylphenyl)-N-[4-(piperidine-1-carbonyl)phenyl]acetamide], the IC50 is no more than 1000 nM.
To `O=C(Cc1ccc(S(=O)(=O)CC2CC2)cc1)Nc1ccc(C(=O)NCc2ccccc2)cc1` [Example 13, N-benzyl-4-[2-(4-cyclopropylmethanesulfonylphenyl)acetamido]benzamide] belongs no more than 1000 nM.
Consider `O=C(Cc1ccc(S(=O)(=O)NC2CC2)cc1)Nc1ccc(C(=O)N2CCCCC2c2ccccc2)cc1` (stereo not drawn) [Example 66, 2-[4-(cyclopropylsulfamoyl)phenyl]-N-[4-(2-phenylpipendine-1-carbonyl)phenyl]acetamide], for which the IC50 is no more than 100 nM.
To `CCN(C(=O)c1ccc(NC(=O)Cc2ccc(S(=O)(=O)NC3CC3)cc2)cc1)c1nc(C)c(C)s1` [Example 107, 4-{2-[4-(cyclopropylsulfamoyl)phenyl]acetamido}-N-(4-methyl-5-methyl-1,3-thiazol-2-yl)-N-ethyl-benzamide] belongs no more than 100 nM; to `O=C(Cc1ccc(S(=O)(=O)CC2CC2)cc1)Nc1ccc(C(=O)N2CCCc3ccccc32)cc1` [Example 40, 2-(4-cyclopropylmethanesulfonylphenyl)-N-[4-(1,2,3,4-tetrahydroquinoline-1-carbonyl)phenyl]acetamide], no more than 10 nM.
Turning to `O=C(Cc1ccc(S(=O)(=O)CC2CC2)cc1)Nc1ccc(C(=O)Nc2c(Cl)cccc2Cl)cc1` [Example 147, 4-[2-(4-cyclopropylmethanesulfonylphenyl)acetamido]-N-(2,6-dichlorophenyl)benzamide], the IC50 is no more than 1000 nM.
The same measure for `O=C(Cc1ccc(S(=O)(=O)CC2CC2)cc1)Nc1ccc(C(=O)N(C2CCC2)C2CCC2)cc1` [Example 27, N,N-dicyclobutyl-4-[2-(4-cyclopropylmethanesulfonylphenyl)acetamido]benzamide]: no more than 100 nM; for `CCN(C(=O)c1ccc(NC(=O)Cc2ccc(S(=O)(=O)CC3CC3)cc2)cc1)c1cccnc1` [Example 52, 4-[2-(4-cyclopropylmethanesulfonylphenyl)acetamido]-N-ethyl-N-(pyridin-3-yl) benzamide]: no more than 100 nM.
With `CN(Cc1ccco1)C(=O)c1ccc(NC(=O)Cc2ccc(S(=O)(=O)CC3CC3)cc2)cc1` [Example 59, 4-[2-(4-cyclopropylmethanesulfonylphenyl)acetamido]-N-(furan-2-ylmethyl)-N-methylbenzamide], the IC50 was no more than 100 nM.
Take `COc1ccccc1N(C)C(=O)c1ccc(NC(=O)Cc2ccc(S(=O)(=O)CC3CC3)cc2)cc1C` [Example 122, 4-[2-(4-cyclopropylmethanesulfonylphenyl)acetamido]-N-(2-methoxyphenyl)-N,2-dimethylbenzamide]: the IC50 is no more than 10 nM.
Take `CC(C)(C)N(C(=O)c1ccc(NC(=O)Cc2ccc(S(=O)(=O)NC3CC3)cc2)cc1)c1ccccc1` [Example 131, N-tert-butyl-4-{2-[4-(cyclopropylsulfamoyl)phenyl]acetamido}-N-phenylbenzamide]: the IC50 was no more than 10 nM.
In the case of `CN(C(=O)c1ccc(NC(=O)Cc2ccc(S(=O)(=O)NC3CC3)cc2)cc1)c1ccccc1` [Example 44, 4-{2-[4-(cyclopropylsulfamoyl)phenyl]acetamido}-N-methyl-N-phenylbenzamide], the IC50 is no more than 100 nM.
`CC(C)CN(CC(C)C)C(=O)c1ccc(NC(=O)Cc2ccc(S(=O)(=O)NC3CC3)cc2)cc1` [Example 62, 4-{2-[4-(cyclopropylsulfamoyl)phenyl]acetamido}-N,N-bis(2-methylpropyl)benzamide]: the IC50 is no more than 1000 nM.
The same measure for `CCN(C(=O)c1ccc(NC(=O)Cc2ccc(S(=O)(=O)CC3CC3)cc2)c(C)c1)c1ccccc1` [Example 105, 4-[2-(4-cyclopropylmethanesulfonylphenyl)acetamido]-N-ethyl-3-methyl-N-phenylbenzamide]: no more than 100 nM; for `CCCN(C(=O)c1ccc(NC(=O)Cc2ccc(S(=O)(=O)CC3CC3)cc2)cc1)c1cc(C)on1` [Example 87, 4-[2-(4-cyclopropylmethanesulfonylphenyl)acetamido]-N-(5-methyl-1,2-oxazol-3-yl)-N-propylbenzamide]: no more than 10 nM; for `CC(C)(C)NC(=O)c1ccc(NC(=O)Cc2ccc(S(=O)(=O)CC3CC3)cc2)cc1` [Example 11, N-tert-butyl-4-[2-(4-cyclopropylmethanesulfonylphenyl)acetamido]benzamide]: no more than 1000 nM.
The same measure for `CN(C(=O)c1ccc(NC(=O)Cc2ccc(S(=O)(=O)CC3CC3)cc2)cc1)C(C)(C)C` [Example 26, N-tert-butyl-4-[2-(4-cyclopropylmethanesulfonylphenyl)acetamido]-N-methylbenzamide]: no more than 1000 nM; for `O=C(Cc1ccc(S(=O)(=O)CC2CC2)cc1)Nc1ccc(C(=O)N[C@H](c2ccc(Cl)cc2)C(F)(F)F)cc1` [Example 76, N-[(1R)-1-(4-chlorophenyl)-2,2,2-trifluoroethyl]-4-[2-(4-cyclopropylmethanesulfonylphenyl)acetamido]benzamide]: no more than 1000 nM; for `COCCN(C(=O)c1ccc(NC(=O)Cc2ccc(S(=O)(=O)CC3CC3)cc2)cc1)C1CC1` [Example 79, N-cyclopropyl-4-[[2-[4-(cyclopropylmethylsulfonyl)phenyl]acetyl]amino]-N-(2-methoxyethyl)benzamide]: no more than 1000 nM.
The same measure for `O=C(Cc1ccc(S(=O)(=O)CC2CC2)cc1)Nc1ccc(C(=O)N2CCCCC2c2ccccc2)cc1` (stereo not drawn) [Example 49, 2-(4-cyclopropylmethanesulfonylphenyl)-N-[4-(2-phenylpiperidine-1-carbonyl)phenyl]acetamide]: no more than 10 nM; for `O=C(Cc1ccc(S(=O)(=O)NC2CC2)cc1)Nc1ccc(C(=O)N(Cc2ccccc2)Cc2ccccc2)cc1` [Example 24, N,N-dibenzyl-4-{2-[4-(cyclopropylsulfamoyl)phenyl]acetamido}benzamide]: no more than 100 nM; for `CN(Cc1ccccc1)C(=O)c1ccc(NC(=O)Cc2ccc(S(=O)(=O)CC3CC3)cc2)cc1` [Example 5, N-benzyl-4-[2-(4-cyclopropylmethanesulfonylphenyl)acetamido]-N-methylbenzamide]: no more than 100 nM.
Take `O=C(Cc1ccc(S(=O)(=O)CC2CC2)cc1)Nc1ccc(C(=O)N2CCCCC2CN2CCOCC2)cc1` (stereo not drawn) [Example 39, 2-(4-cyclopropylmethanesulfonylphenyl)-N-{4-[2-(morpholin-4-ylmethyl)piperidine-1-carbonyl]phenyl}acetamide]: the IC50 was no more than 1000 nM.
`O=C(Cc1ccc(S(=O)(=O)CC2CC2)cc1)Nc1ccc(C(=O)N(Cc2ccccc2)Cc2ccccc2)cc1` [Example 12, N,N-dibenzyl-4-[2-(4-cyclopropylmethanesulfonylphenyl)acetamido]benzamide]: the IC50 is no more than 100 nM.
To `CCN(C(=O)c1ccc(NC(=O)Cc2ccc(S(=O)(=O)CC3CC3)cc2)cc1OC)c1ccccc1` [Example 58, 4-[2-(4-cyclopropylmethanesulfonylphenyl)acetamido]-N-ethyl-2-methoxy-N-phenylbenzamide] belongs no more than 100 nM; to `COc1ccccc1[C@H](C)NC(=O)c1ccc(NC(=O)Cc2ccc(S(=O)(=O)CC3CC3)cc2)cc1` [Example 70, 4-[2-(4-cyclopropylmethanesulfonylphenyl)acetamido]-N-[(1S)-1-(2-methoxyphenyl)ethyl]benzamide], no more than 1000 nM.
To `Cc1ccc(N(C(=O)c2ccc(NC(=O)Cc3ccc(S(=O)(=O)CC4CC4)nc3)cc2)C(C)(C)CO)cc1` [Example 161, 4-[2-(6-cyclopropylmethanesulfonylpyridin-3-yl)acetamido]-N-(1-hydroxy-2-methylpropan-2-yl)-N-(4-methylphenyl)benzamide] belongs no more than 100 nM.

Values taken from patent US10315996B2, “ROR gamma (RORγ) modulators” (LEAD PHARMA HOLDING B.V., priority 2015, dated 2019).
